In patent US7018648B2, “Transdermal device for administering testosterone or one of the derivatives thereof” (Pierre Fabre Medicament, priority 1999, dated 2006):

What was measured:
[1] = Ex vivo permeation on animal skin after pretreatment with promoter compound (permeation index vs blank reference product); format: in vitro ADME; conditions: for Permeation index: ratio of cumulative amount of testosterone at 24 hours after skin pretreatment with the compound relative to blank, 1 = no promoting effect
Source text: FIG. 1 represents the permeation indices (PIs), also known as the “enhancement factors” for comparing in vitro the promoting effect of different products.
This is the product sold by the company Alza under the brand name Testoderm CIII®. This matrix transdermal device for scrotal application is free of promoters and, consequently, is more particularly suitable for performing in vitro protocols intended to select the best permeation promoters of this active principle.
As regards the second category of products, it is more particularly advantageous to check their permeation-promoting effect with respect to the active principle according to the invention. Ex vivo studies of permeation on animal skin are carried out using a reference product whose kinetics constitute a “blank”, and then after initial pretreatment of the skin with the promoter compound. The ratio of the cumulative amount at 24 hours of the test relative to the “blank” gives the permeation index “PI” factor or “enhancement factor”. A permeation index of close to 1 means that the test product has no promoting effect for the active principle under consideration and under the operating conditions used. A classification is then possible according to the indications of table II below.

[2] = Solubility at saturation of testosterone in solvents/excipients; format: physicochemical
Experimental: Studies for selecting the components of the adhesive matrix other than the actual adhesive are useful and involve solubility and in vitro permeation tests. To evaluate the solubilizing power of different components, solubility studies at saturation are performed.

Compound: CCN(CC)C(=O)c1cccc(C)c1 [DEET, N,N-diethyl-m-toluamide]
- testosterone permeation-promoting effect ([1]; in words): lacks any testosterone-promoting effect

Compound: Sorbitan laurate
- Permeation index [1]: 11.70

Compound: C[C@]12CCC(=O)C=C1CC[C@@H]1[C@@H]2CC[C@]2(C)C(O)CC[C@@H]12 (some centres unmarked) [testosterone, 17-hydroxyandrost-4-en-3-one]
- Solubility at saturation of testosterone ([2]; in Cyclohexane): 0.06 % m/m
- Solubility at saturation of testosterone ([2]; in Ethanol): 22.12 % m/m
- Solubility at saturation of testosterone ([2]; in Ethyl acetate): 4.45 % m/m
- Solubility at saturation of testosterone ([2]; in Isopropanol): 12.80 % m/m
- Solubility at saturation of testosterone ([2]; in Laurylpyrrolidone): 15.90 % m/m
- Solubility at saturation of testosterone ([2]; in Lysophosphatidylcholine): 6.96 % m/m
- Solubility at saturation of testosterone ([2]; in Methyl laurate): 1.43 % m/m
- Solubility at saturation of testosterone ([2]; in Polysorbate 80): 2.62 % m/m
- Solubility at saturation of testosterone ([2]; in Sorbitan laurate): 4.12 % m/m
- Solubility at saturation of testosterone ([2]; in Tetrahydrofuran): 27.01 % m/m

Compound: CCCCCCCCCCCCN1CCCC1=O [Laurylpyrrolidone]
- Permeation index [1]: 11.27

Compound: Lysophosphatidylchloline
- Permeation index [1]: 9.18
